Source: patent US20230147257A1 (DONG-A ST CO., LTD., priority 2020, published 2023)
Where two headings read alike, the source gives them in different places.

Tests used:
Assay type in all cases: cell-based
AhR [1] = target: T1, AhR (Homo sapiens, UniProt P35869); test: In vitro assay 1: XRE-luciferase reporter assay, antagonism in human cell line (HepG2); conditions: HepG2 XRE-luciferase, 6 hours, read-out: Assay 1: AhR-Luc Human Antagonism (IC50)
T1 construct: host or cells: HepG2
T1 sequence (P35869 11-848): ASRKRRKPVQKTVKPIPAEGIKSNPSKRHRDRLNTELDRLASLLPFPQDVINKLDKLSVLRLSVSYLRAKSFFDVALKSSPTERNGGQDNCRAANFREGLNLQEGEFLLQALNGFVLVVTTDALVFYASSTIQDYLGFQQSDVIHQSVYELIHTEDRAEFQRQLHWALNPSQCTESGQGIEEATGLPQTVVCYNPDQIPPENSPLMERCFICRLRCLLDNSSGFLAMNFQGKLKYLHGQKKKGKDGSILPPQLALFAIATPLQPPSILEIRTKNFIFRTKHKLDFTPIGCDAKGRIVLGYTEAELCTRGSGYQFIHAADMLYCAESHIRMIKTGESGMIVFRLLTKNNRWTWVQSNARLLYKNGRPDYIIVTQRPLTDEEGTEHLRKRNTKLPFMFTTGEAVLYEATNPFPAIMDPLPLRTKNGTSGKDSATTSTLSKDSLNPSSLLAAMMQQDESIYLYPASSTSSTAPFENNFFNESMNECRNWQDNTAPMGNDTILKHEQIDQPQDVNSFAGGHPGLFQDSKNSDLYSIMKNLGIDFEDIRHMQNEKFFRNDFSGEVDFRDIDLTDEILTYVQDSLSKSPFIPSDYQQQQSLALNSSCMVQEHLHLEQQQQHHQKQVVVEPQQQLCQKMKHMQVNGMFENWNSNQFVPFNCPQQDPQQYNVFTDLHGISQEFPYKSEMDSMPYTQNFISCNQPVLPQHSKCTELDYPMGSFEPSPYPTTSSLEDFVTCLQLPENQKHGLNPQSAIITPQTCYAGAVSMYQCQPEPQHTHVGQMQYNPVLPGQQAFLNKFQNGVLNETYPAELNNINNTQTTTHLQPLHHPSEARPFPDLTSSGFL
Summary of the method: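 HepG2 cells carrying XRE-firefly luciferase (transient or stable) plus constitutive Nano-Luc control, stimulated 6 h with kynurenine (50 or 200 μM) with or without compound. Firefly/Nano-Luc ratio normalized to kynurenine-alone (maximum) and vehicle (minimum); IC50 by four-parameter nonlinear regression.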

AhR [2] = target: T1, AhR; test: In vitro assay 4: endogenous AhR activity assay (CYP1A1 and CYP1B1 mRNA, qRT-PCR, HepG2 cells); conditions: TCDD 10 nM with compound 123 nM, 4 hours, mRNA relative to β-actin
Procedure: In Vitro Assay 4: Endogenous AhR Activity Assay
HepG2 cells were seeded in 12-well plate (3×10^5 cells/well). A day after seeding, the cells were treated with TCDD (10 nM) alone or with compounds (123 nM) for 4 hours. Total RNA was extracted using Trizol (Thermo Fisher Scientific). cDNA synthesis and quantitative RT-PCR (qRT-PCR) assays were performed using PrimeScript™ RT Master Mix (TAKARA) and TB Green™ Premix Ex Taq™ II (TAKARA) in accordance with manufacturer's instruction. For the measurement of endogenous AhR activity, relative mRNA levels of CYP1A1 and CYP1B1 were quantitated relative to β(beta)-actin mRNA by the comparative Ct (ΔΔCt) method. The percent inhibitions were calculated according to: […]

AhR [3] = target: T2, AhR (Mus musculus, UniProt P30561); test: In vitro assay 2: XRE-luciferase reporter assay, antagonism in mouse cell line (Hepa1c1c7); conditions: Hepa1c1c7 XRE-Luc, 6 hours
T2 sequence (P30561 1-848): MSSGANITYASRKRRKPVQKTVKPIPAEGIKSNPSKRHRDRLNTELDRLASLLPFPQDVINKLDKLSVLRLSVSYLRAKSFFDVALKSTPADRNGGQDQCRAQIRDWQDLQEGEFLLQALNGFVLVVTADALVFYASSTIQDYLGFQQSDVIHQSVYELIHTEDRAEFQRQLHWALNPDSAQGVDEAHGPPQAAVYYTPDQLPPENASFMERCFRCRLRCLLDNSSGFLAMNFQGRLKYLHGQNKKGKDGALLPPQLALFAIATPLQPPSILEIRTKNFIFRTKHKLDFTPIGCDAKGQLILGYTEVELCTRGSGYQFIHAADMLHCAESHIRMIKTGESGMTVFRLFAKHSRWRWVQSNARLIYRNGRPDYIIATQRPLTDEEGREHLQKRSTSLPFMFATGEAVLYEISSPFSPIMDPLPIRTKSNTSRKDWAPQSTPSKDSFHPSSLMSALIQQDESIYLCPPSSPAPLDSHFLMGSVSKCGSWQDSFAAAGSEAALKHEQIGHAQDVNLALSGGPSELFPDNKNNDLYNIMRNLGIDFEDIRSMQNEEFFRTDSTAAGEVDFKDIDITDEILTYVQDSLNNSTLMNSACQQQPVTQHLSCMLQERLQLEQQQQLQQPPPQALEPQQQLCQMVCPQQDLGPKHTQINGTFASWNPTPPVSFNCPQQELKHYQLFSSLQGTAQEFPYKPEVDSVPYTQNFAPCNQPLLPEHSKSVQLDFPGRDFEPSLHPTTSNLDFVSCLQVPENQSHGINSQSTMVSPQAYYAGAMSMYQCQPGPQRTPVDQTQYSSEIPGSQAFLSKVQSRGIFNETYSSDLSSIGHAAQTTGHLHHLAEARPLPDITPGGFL
Text: (§1) In Vitro XRE-Luciferase Reporter Assay (In Vitro Assay 1, 2, 3)
(§2) AhR activation leads the induction of target gene expression such as CYP1A1 and CYP1B1 by AhR binding to AhR-responsive DNA elements also known as xenobiotics responsive elements (XRE). The assay for measuring AhR activity herein is the luciferase assay using cell lines transfected with luciferase reporter plasmid containing XREs at the upstream of the reporter gene. Cells transfected with XRE-luciferase reporter (XRE-Luc) plasmid drive luciferase activity reflecting activation and inhibition of AhR in the cells. In addition to transfection with XRE-reporter vector, cells were co-transfected with Nano-luciferase reporter gene construct (Nano-Luc) containing constitutively active promoter as internal control. Kynurenine (an endogenous AhR agonist) was used to stimulate cells to test antagonistic properties of the compounds. The half-maximal inhibitory concentration (IC50) or half-maximal effective concentration (EC50) value was calculated using nonlinear regression (four parameters) with Prism8.0 software (GraphPad).
In Vitro Assay 2: Antagonism in Mouse Cell Line
Hepa1c1c7 (murine liver cancer cell line) cells co-transfected with XRE-Luc and Nano-Luc plasmids were plated in complete medium and incubated overnight at 37° C. in a CO2 incubator. Following incubation, cells were treated with AhR activating ligands such as kynurenic acid, kynurenine(#) with or without test compounds for 6 hours. Firefly luciferase and Nano-luciferase activity was measured using Nano-glo Luciferase kit (Promega) and relative luciferase activity (Firefly/Nano-Luc) was used to calculate IC50 values. The relative luciferase activity was further normalized with agonists alone group as the maximum control and the vehicle group as the minimum control. (IC50 Values are grouped as A, B, C and D, whereby A: IC50<0.01 μM; B: 0.01<IC50<0.1 μM; C: 0.1<IC50<1.0 μM; D: IC50>1.0 μM)

AhR [4] = target: T1, AhR; test: In vitro assay 3: XRE-luciferase reporter assay, agonism in human cell line (HepG2); conditions: HepG2 XRE-Luc, tryptophan free medium, test compound alone, 6 hours
Text: as §1, §2
In Vitro Assay 3: Agonism in Human Cell Line
HepG2 (human hepatoma cell line) cells co-transfected with XRE-Luc and Nano-Luc plasmids were plated in tryptophan free medium containing 1% of dialyzed fetal bovine serum and incubated overnight at 37° C. in a CO2 incubator. After 24 hours, cells were treated for 6 hours with test compounds or not. Firefly luciferase and Nano-luciferase activity was measured using Nano-glo Luciferase kit (Promega) and relative luciferase activity (Firefly/Nano-Luc) was used to calculate EC50 values. As a positive control, cells were incubated with TCDD. (EC50 Values are grouped as A, B, C and D, whereby A: EC50<0.1 μM; B: 0.1<EC50<1.0 μM; C: 1.0<EC50<10 μM; D: EC50>10 μM)

[5] = cells treated with kynurenine 200 μM (no *)
[6] = read-out: CYP1A1 (% Inhibition)
[7] = read-out: CYP1B1 (% Inhibition)
[8] = AhR activating ligand such as kynurenic acid (no #)
[9] = read-out: Assay 3: AhR-Luc Human Agonism (EC50)
[10] = read-out: Assay 3: AhR-Luc Human Agonism (EC50, nM), class in brackets
[11] = cells treated with kynurenine (#)
[12] = cells treated with kynurenine 50 μM (*)

## Cn1cc(-c2nc(-c3ccc(C(F)(F)F)cc3)cc3c(=O)n([C@H]4CCCC[C@H]4O)cnc23)cn1 [Example 17, 3-((1S,2R)-2-hydroxycyclohexyl)-8-(1-methyl-1H-pyrazol-4-yl)-6-(4-(trifluoromethyl)phenyl)pyrido[3,4-d]pyrimidin-4(3H)-one]
AhR [1]; [5]
  IC50: > 1000 nM
AhR [2]; [6]
  inhibition at 0.123 µM: 90.7%
AhR [2]; [7]
  inhibition at 0.123 µM: 99.1%

## O=c1c2cc(-c3ccc(C(F)(F)F)cc3)nc(-c3cccnc3)c2ncn1[C@@H]1CCCC[C@@H]1O [Example 16, 3-((1R,2S)-2-hydroxycyclohexyl)-8-(pyridin-3-yl)-6-(4-(trifluoromethyl)phenyl)pyrido[3,4-d]pyrimidin-4(3H)-one]
AhR [1]; [5]
  IC50: < 10 nM
AhR [2]; [6]
  inhibition at 0.123 µM: 99.6%
AhR [2]; [7]
  inhibition at 0.123 µM: 100%

## CC(=O)N1CCC(n2cnc3c(-c4cccnc4)nc(-c4ccc(Cl)cc4)cc3c2=O)CC1 [Example 96, 3-(1-acetylpiperidin-4-yl)-6-(4-chlorophenyl)-8-(pyridin-3-yl)pyrido[3,4-d]pyrimidin-4(3H)-one]
AhR [1]; [5]
  IC50: < 10 nM
AhR [3]; [8]
  IC50: < 10 nM
AhR [4]; [9]
  EC50: > 30000 nM
AhR [4]; [10]
  EC50: > 10000 nM
AhR [2]; [6]
  inhibition at 0.123 µM: 99.9%

## CC(CO)n1cnc2c(-c3cccnc3)nc(-c3ccc(N4CCOCC4)cc3)cc2c1=O (stereo not drawn) [Example 75, 3-(1-hydroxypropan-2-yl)-6-(4-morpholinophenyl)-8-(pyridin-3-yl)pyrido[3,4-d]pyrimidin-4(3H)-one]
AhR [1]; [5]
  IC50: < 10 nM
AhR [3]; [11]
  IC50: 10 to 100 nM
AhR [4]; [9]
  EC50: > 30000 nM
AhR [4]; [10]
  EC50: > 10000 nM
AhR [2]; [6]
  inhibition at 0.123 µM: 101%

## CC(=O)NCC(C)n1cnc2c(-c3cccnc3)nc(-c3ccc(Cl)cc3)cc2c1=O (stereo not drawn) [Example 88, N-(2-(6-(4-chlorophenyl)-4-oxo-8-(pyridin-3-yl)pyrido[3,4-d]pyrimidin-3(4H)-yl)propyl)acetamide]
AhR [1]; [5]
  IC50: < 10 nM
AhR [3]; [11]
  IC50: 10 to 100 nM
AhR [4]; [9]
  EC50: > 30000 nM
AhR [4]; [10]
  EC50: > 10000 nM
AhR [2]; [6]
  inhibition at 0.123 µM: 99.2%

## O=c1c2cc(-c3ccc(Cl)cc3)nc(-c3cccnc3)c2ncn1[C@H]1CC[C@H](O)CC1 [Example 56, 6-(4-chlorophenyl)-3-((1r,4r)-4-hydroxycyclohexyl)-8-(pyridin-3-yl)pyrido[3,4-d]pyrimidin-4(3H)-one]
AhR [1]; [5]
  IC50: < 10 nM
AhR [3]; [8]
  IC50: < 10 nM
AhR [4]; [9]
  EC50: > 30000 nM
AhR [4]; [10]
  EC50: > 10000 nM
AhR [2]; [6]
  inhibition at 0.123 µM: 101%

## CC(CO)n1cnc2c(-c3cnn(C)c3)nc(-c3ccc(C(F)(F)F)cc3)cc2c1=O (stereo not drawn) [Example 45, 3-(1-hydroxypropan-2-yl)-8-(1-methyl-1H-pyrazol-4-yl)-6-(4-(trifluoromethyl)phenyl)pyrido[3,4-d]pyrimidin-4(3H)-one]
AhR [1]; [12]
  IC50: < 10 nM
AhR [4]; [9]
  EC50: 0.0428 nM
AhR [2]; [6]
  inhibition at 0.123 µM: 99.6%
AhR [2]; [7]
  inhibition at 0.123 µM: 100%

## CCC(CO)n1cnc2c(-c3cccnc3)nc(-c3ccc(Cl)cc3)cc2c1=O (stereo not drawn) [Example 51, 6-(4-chlorophenyl)-3-(1-hydroxybutan-2-yl)-8-(pyridin-3-yl)pyrido[3,4-d]pyrimidin-4(3H)-one]
AhR [1]; [12]
  IC50: < 10 nM
AhR [4]; [9]
  EC50: 701 nM
AhR [2]; [6]
  inhibition at 0.123 µM: 99.2%

## O=c1c2cc(-c3ccc(C(F)(F)F)cc3)nc(-c3cccnc3)c2ncn1CC(O)CO (stereo not drawn) [Example 66, 3-(2,3-dihydroxypropyl)-8-(pyridin-3-yl)-6-(4-(trifluoromethyl)phenyl)pyrido[3,4-d]pyrimidin-4(3H)-one]
AhR [1]; [5]
  IC50: < 10 nM
AhR [3]; [11]
  IC50: 10 to 100 nM
AhR [2]; [6]
  inhibition at 0.123 µM: 100%

## CC(C)(O)Cn1cnc2c(-c3cccnc3)nc(-c3ccc(Cl)cc3)cc2c1=O [Example 38, 6-(4-chlorophenyl)-3-(2-hydroxy-2-methylpropyl)-8-(pyridin-3-yl)pyrido[3,4-d]pyrimidin-4(3H)-one]
AhR [1]; [5]
  IC50: < 10 nM
AhR [4]; [9]
  EC50: 1670 nM
AhR [2]; [6]
  inhibition at 0.123 µM: 100%
